From patent publication US20260234115A1, “LIPID COMPOUNDS, COMPOSITIONS, AND USES THEREOF” (Liberate Bio, Inc., priority 2023, published 2026)
Marks after values point to notes of the source that are not given here.

Key:
[1] = Dynamic light scattering: LNP particle size and PDI; type: physicochemical; conditions: for PDI N/P:3 / Size (nm) N/P:3 / PDI N/P:6 / Size (nm) N/P:6: LNP
Protocol: (§1) Lipids and active ingredients (e.g., RNA, DNA, etc.) were assembled into LNPs using microfluidic mixing. An ethanol phase was prepared by solubilizing ionizable lipids (i.e., lipid compounds), phospholipids (e.g., DSPC), cholesterol, and PEG lipids in ethanol, at predetermined mol % ratios given in Table 2. An aqueous phase was prepared by diluting a nucleic acid cargo (e.g., firefly luciferase mRNA) in an acidified buffer (pH 4.0 citrate buffer, 50 mM). A chip with microfluidic mixing architecture (e.g., toroidal mixer) was used to mix the two phases at predetermined flow rate ratios (e.g., 9 ml/min for the aqueous phase and 3 ml/min for the ethanol phase). Resulting LNPs comprising the lipids and encapsulating the nucleic acid cargo were dialyzed against PBS pH 7.4 for 2 hours at room temperature in a 20 kDa MWCO dialysis membrane. Then, PBS was refreshed to continue dialysis overnight at 2-8 TC. Upon completion of the buffer exchange, LNPs were optionally concentrated using a ultracentrifugal unit with a 10-100 kDa MWCO membrane.
d. Dynamic Light Scattering
LNPs were diluted with PBS pH 7.4 to predetermined dilution ranges based on the process step and LNP concentration. Following mixing, the particle size and PDI were measured by a dynamic light scattering instrument.

[2] = Plate-based fluorescence (RiboGreen) assay: nucleic acid cargo content and encapsulation efficiency of LNPs; type: physicochemical; conditions: for EE (%) N/P:3 / EE (%) N/P:6: LNP
Protocol: as §1
c. Plate-Based Fluorescence (RiboGreen) Assay
Nucleic acid cargos in the LNPs were quantified by RiboGreen assay, against a nucleic acid standard curve. LNPs encapsulating nucleic acid cargo were mixed with 1× Tris-EDTA (TE) and 2% triton in TE, separately, to achieve dilutions required by the assay. Then, the samples were heated at 30° C. and vortexed at 300 rpm. Samples were plated into 96-well plates and RiboGreen reagent was added into each well. Following incubation in the dark, fluorescence was measured from the wells, and plotted against the standard curve. Nucleic acid concentration obtained from the Triton-treated samples were used for total cargo concentration quantification. Only TE diluted sample fluorescence values were used to determine the non-encapsulated (free) cargo, and their ratio was used to determine the encapsulation efficiency (EE %).

mouse organs = experiment: In vivo activity screening in mice: organ mean total flux (p/s) of luciferase activity after injection of F2 LNP pools (Table 6, FIG. 7A-7C); conditions: luciferase mRNA
Summary of the method: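 C57BL/6J mice given one tail-vein injection of pooled Formulation F2 LNPs carrying firefly luciferase mRNA (0.25-3 mg/kg) in PBS. At 4-6 h, s.c. D-luciferin given; organs imaged ex vivo by IVIS within 10-15 min, after saline cardiac perfusion. Mean total flux (p/s) per organ ROI.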

[3] = LNP compositions for Formulation F2 Study
[4] = LNP compositions for in vivo mouse study, four formulations (F1-F4) of the lipid compound pooled, or pools of four compounds (sixteen compositions)
[5] = LNP compositions for in vivo mouse study, four formulations (F1-F4) pooled, or pools of four compounds

CCCCC/C=C\CCOC(=O)CCCCCCC(=O)OCC(COC(=O)CCCCCCC(=O)OCC/C=C\CCCCC)(COC(=O)CCCCCCC(=O)OCC/C=C\CCCCC)COC(=O)CCC(CCCCCC)OC(=O)NCCN1CCCC1 (centres unmarked) [Compound 10, O8-[2,2-bis[[8-[(Z)-non-3-enoxy]-8-oxo-octanoyl]oxymethyl]-3-[4-(2-pyrrolidin-1-ylethylcarbamoyloxy)decanoyloxy]propyl]O1-[(Z)-non-3-enyl]octanedioate]
PDI [1, 3]: 0.139 | Particle Size (nm) [1, 3]: 125.5 nm | Particle Size (nm) [1, 4]: 91.7 nm | PDI [1, 5]: 0.176 | PDI N/P:3 ([1]; Formulation F1, N/P 3): 0.208 | Size (nm) N/P:3 ([1]; Formulation F1, N/P 3): 86 ± 4 nm | PDI N/P:6 ([1]; Formulation F1, N/P 6): 0.09 | Size (nm) N/P:6 ([1]; Formulation F1, N/P 6): 78 ± 3 nm | PDI N/P:3 ([1]; Formulation F2, N/P 3): 0.097 | Size (nm) N/P:3 ([1]; Formulation F2, N/P 3): 102 ± 3 nm | PDI N/P:6 ([1]; Formulation F2, N/P 6): 0.122 | Size (nm) N/P:6 ([1]; Formulation F2, N/P 6): 96 ± 0 nm | PDI N/P:3 ([1]; Formulation F3, N/P 3): 0.081 | Size (nm) N/P:3 ([1]; Formulation F3, N/P 3): 106 ± 2 nm | PDI N/P:6 ([1]; Formulation F3, N/P 6): 0.092 | Size (nm) N/P:6 ([1]; Formulation F3, N/P 6): 100 ± 3 nm | PDI N/P:3 ([1]; Formulation F4, N/P 3): 0.278 | Size (nm) N/P:3 ([1]; Formulation F4, N/P 3): 92 ± 4 nm | PDI N/P:6 ([1]; Formulation F4, N/P 6): 0.227 | Size (nm) N/P:6 ([1]; Formulation F4, N/P 6): 78 ± 1 nm | EE % [2, 3]: 98% | EE % [2, 5]: 99% | mRNA Content [2, 5]: 101.7 µg/mL | EE (%) N/P:3 ([2]; Formulation F1, N/P 3): 98% | EE (%) N/P:6 ([2]; Formulation F1, N/P 6): 100% | EE (%) N/P:3 ([2]; Formulation F2, N/P 3): 98% | EE (%) N/P:6 ([2]; Formulation F2, N/P 6): 100% | EE (%) N/P:3 ([2]; Formulation F3, N/P 3): 96% | EE (%) N/P:6 ([2]; Formulation F3, N/P 6): 100% | EE (%) N/P:3 ([2]; Formulation F4, N/P 3): 98% | EE (%) N/P:6 ([2]; Formulation F4, N/P 6): 100% | Organ Mean Total Flux Femur (mouse organs; Mouse 1, dose 0.3 mg/kg): 7.1 p/s (×10^6) | Organ Mean Total Flux Heart (mouse organs; Mouse 1, dose 0.3 mg/kg): 4.3 p/s (×10^6) | Organ Mean Total Flux Kidney (mouse organs; Mouse 1, dose 0.3 mg/kg): 81.1 p/s (×10^6) | Organ Mean Total Flux Liver (mouse organs; Mouse 1, dose 0.3 mg/kg): 12560 p/s (×10^6) | Organ Mean Total Flux Lung (mouse organs; Mouse 1, dose 0.3 mg/kg): 41.5 p/s (×10^6) | Organ Mean Total Flux Muscle (mouse organs; Mouse 1, dose 0.3 mg/kg): 6.2 p/s (×10^6) | Organ Mean Total Flux Pancreas (mouse organs; Mouse 1, dose 0.3 mg/kg): 2.7 p/s (×10^6) | Organ Mean Total Flux Spleen (mouse organs; Mouse 1, dose 0.3 mg/kg): 12.3 p/s (×10^6) | Organ Mean Total Flux Femur (mouse organs; Mouse 14, dose 0.5 mg/kg): 6.5 p/s (×10^6) | Organ Mean Total Flux Heart (mouse organs; Mouse 14, dose 0.5 mg/kg): 2.8 p/s (×10^6) | Organ Mean Total Flux Kidney (mouse organs; Mouse 14, dose 0.5 mg/kg): 3.7 p/s (×10^6) | Organ Mean Total Flux Liver (mouse organs; Mouse 14, dose 0.5 mg/kg): 1175 p/s (×10^6) | Organ Mean Total Flux Lung (mouse organs; Mouse 14, dose 0.5 mg/kg): 16.2 p/s (×10^6) | Organ Mean Total Flux Muscle (mouse organs; Mouse 14, dose 0.5 mg/kg): 15.1 p/s (×10^6) | Organ Mean Total Flux Pancreas (mouse organs; Mouse 14, dose 0.5 mg/kg): 4.0 p/s (×10^6) | Organ Mean Total Flux Spleen (mouse organs; Mouse 14, dose 0.5 mg/kg): 10.2 p/s (×10^6)

CCCCC/C=C\CCOC(=O)CCCCCCC(=O)OCC(COC(=O)CCCCCCC(=O)OCC/C=C\CCCCC)(COC(=O)CCC(CCCCCC)OC(=O)NCCN1CCCC1)COC(=O)CC12CC3CC(CC(C3)C1)C2 (centres unmarked) [Compound 11, O8-[2-[[2-(1-adamantyl)acetyl]oxymethyl]-2-[[8-[(Z)-non-3-enoxy]-8-oxo-octanoyl]oxymethyl]-3-[4-(2-pyrrolidin-1-ylethylcarbamoyloxy)decanoyloxy]propyl]O1-[(Z)-non-3-enyl]octanedioate]
Particle Size (nm) [1, 4]: 86 nm | PDI [1, 5]: 0.13 | PDI N/P:6 ([1]; Formulation F1, N/P 6): 0.16 | Size (nm) N/P:6 ([1]; Formulation F1, N/P 6): 77 ± 7 nm | PDI N/P:6 ([1]; Formulation F2, N/P 6): 0.11 | Size (nm) N/P:6 ([1]; Formulation F2, N/P 6): 88 ± 3 nm | PDI N/P:6 ([1]; Formulation F3, N/P 6): 0.14 | Size (nm) N/P:6 ([1]; Formulation F3, N/P 6): 91 ± 1 nm | PDI N/P:6 ([1]; Formulation F4, N/P 6): 0.30 | Size (nm) N/P:6 ([1]; Formulation F4, N/P 6): 74 ± 2 nm | EE % [2, 5]: 97% | mRNA Content [2, 5]: 105 µg/mL | EE (%) N/P:6 ([2]; Formulation F1, N/P 6): 100% | EE (%) N/P:6 ([2]; Formulation F2, N/P 6): 100% | EE (%) N/P:6 ([2]; Formulation F3, N/P 6): 97% | EE (%) N/P:6 ([2]; Formulation F4, N/P 6): 99% | Organ Mean Total Flux Femur (mouse organs; Mouse 1, dose 0.3 mg/kg): 5.3 p/s (×10^6) | Organ Mean Total Flux Heart (mouse organs; Mouse 1, dose 0.3 mg/kg): 2.3 p/s (×10^6) | Organ Mean Total Flux Kidney (mouse organs; Mouse 1, dose 0.3 mg/kg): 2.4 p/s (×10^6) | Organ Mean Total Flux Liver (mouse organs; Mouse 1, dose 0.3 mg/kg): 5140 p/s (×10^6) | Organ Mean Total Flux Lung (mouse organs; Mouse 1, dose 0.3 mg/kg): 27.7 p/s (×10^6) | Organ Mean Total Flux Muscle (mouse organs; Mouse 1, dose 0.3 mg/kg): 21.8 p/s (×10^6) | Organ Mean Total Flux Pancreas (mouse organs; Mouse 1, dose 0.3 mg/kg): 6.0 p/s (×10^6) | Organ Mean Total Flux Spleen (mouse organs; Mouse 1, dose 0.3 mg/kg): 32.3 p/s (×10^6)
